Assay results from patent publication US12590057B2, “Crystalline complexes” (Theracryf PLC, priority 2020, dated 2026).
“And” between values parts separate entries of the source, which are not always exact repeats. Equal entries are not always repeated.

Assays:
Type in all cases: physicochemical
[1] = Chemical stability in biorelevant media
Description: Samples of Form 1 (batch ref […]-0004-S-8002) and Form 3 (Example 5.4.1 (batch ref. 491PAL22; A-19-0132)) in 0.1 M HCl and FaSSIF media (1.2 mg/ml) were stored at ambient and 37° C. for up to 7 days. Chemical stability was assessed by determining the concentration of parent compound by HPLC on days 0, 3 and 7 in triplicate.

[2] = Typical water content of the crystalline forms
Description: The water content of a sample can be determined by any suitable means as will be apparent to one of skill in the art. In one embodiment, the water content is determined by Karl-Fischer titration. In one embodiment, the water content is determined by thermogravimetric analysis (TGA). In one embodiment, the water content is determined by gravimetric vapour sorption (GVS). After formation of the crystalline complex according to the invention, the water content may be as low as 1-3% w/w. However, after exposure of the complex to ambient conditions (25° C., 40% RH) the material typically equilibrates (e.g. over a period of 3-7 days) to a water content of up to 5-7% w/w. It has been found, however, that Form 3, once equilibrated to 5-7% w/w water, maintains physical form at 60% RH making it unexpectedly stable over the 0% and 60% humidity range.

[3] = GVS sorption-desorption isotherms; settings: for water content at starting conditions (GVS): 40% RH and 25° C.; for additional water taken up (GVS): RH increased to 90%; for crystalline form by XRPD after GVS: after sorption/desorption cycle(s); for total water content (GVS): at 90% RH; for water taken up (GVS): between 0% and 60% RH (Form 1: at 60% RH)
Description: Sorption isotherms were obtained using a SMS DVS Intrinsic moisture sorption analyser, controlled by DVS Intrinsic Control software. The sample temperature was maintained at 25° C. by the instrument controls. The humidity was controlled by mixing streams of dry and wet nitrogen, with a total flow rate of 200 ml/min. The relative humidity was measured by a calibrated Rotronic probe (dynamic range of 1.0-100% RH), located near the sample. The weight change, (mass relaxation) of the sample as a function of % RH was constantly monitored by a microbalance (accuracy±0.005 mg). Typically, 5-30 mg of sample was placed in a tared mesh stainless steel basket under ambient conditions. The sample was loaded and unloaded at 40% RH and 25° C. (typical room conditions). A moisture sorption isotherm was performed as outlined below (2 scans per complete cycle). The standard isotherm was performed at 25° C. at 10% RH intervals over a 0-90% RH range. Typically, a double cycle (4 scans) was carried out. Data analysis was carried out within Microsoft Excel using the DVS Analysis Suite. Samples of Example 1 (Form 1) and Example 3 (Form 3) were analysed for their sorption-desorption isotherms by GVS. […] The sample contained approximately 8% w/w water at the starting conditions of 40% RH and 25° C. […] Therefore, the second sorption profile seen in FIG. 18A is that of Form 3. […] The sample contained approximately 3-4% w/w water at the starting conditions of 40% RH and 25° C. […] A significant uptake of moisture occurred in the first sorption cycle between 60 and 70% RH equivalent to approximately 5% w/w.

[4] = Equilibrium solubility in biorelevant media (shake flask); set-up: Equilibrium solubility, Mean Conc: unit not given here; settings: for equilibrium solubility in words: 0.1 M HCl and FaSSIF media; for Equilibrium solubility, Mean Conc: 37° C.
Description: The equilibrium solubility of samples of Form 1 (batch ref […]-0004-S-8002) and Form 3 (Example 5.4.1 (batch ref, 491PAL22; A-19-0132)) in 0.1M HCl and FaSSIF media at 37° C. was carried out using the shake flask method. Samples were taken at 4 hours and 24 hours and centrifuged for 5 minutes at 15,000 rpm. The supernatant was removed and diluted with appropriate solvent prior to HPLC analysis of the parent concentrations.

[5] = Compaction testing (Heckel analysis); settings: for True Density: Helium Pycnometry; for Loss on Drying - end: end of compression testing; for Loss on Drying - end / Loss on Drying - start: 105° C.; for Yield pressure slow: punch speed 0.1 mm/s; for Yield pressure fast: punch speed 300 mm/s; for Loss on Drying - start: start of compression testing
From the text: Samples of Form 1 and Form 3 were subjected to Heckel analysis to determine the yield pressure of the material upon compression under controlled conditions. A known weight of material was compressed within a 10 mm diameter die with flat faced punches moving at a set speed. The die was lubricated with magnesium stearate in acetone. The force on the punch was accurately measured at frequent intervals whilst the displacement of the punches was used to calculate the volume of the powder. The yield pressure was calculated at slow (0.1 mm/s) and fast (300 mm/s) punch speeds to assess the time dependant component to deformation of the material. The true density of the material was determined by Helium Pycnometry (Micromeritics AccuPyc II 1340) using a purge pressure and run fill pressure of 19.5 psig and an equilibration rate of 0.02 psig. Testing was performed in duplicate. Temperature and humidity were monitored at intervals during the testing.
The data were analysed by the Compaction Analysis software programme to generate values for yield pressure (Py) using the Heckel equation: ln(1/1−D)=kP+A where D=the relative density of the compact; P=Pressure applied; and K=Gradient of the line in the linear region [Heckel, Trans. Metall. Soc. AIME 221 (1961)1001-1008].
Strain Rate Sensitivity (SRS) can be calculated to determine whether the deformation characteristics of the material change with the rate of applied force. The yield pressure at high speed compression is compared to that at slow speed using the following equation [Roberts and Roe, Chem. Eng. Sci. 42(1987) p. 903]. % SRS=100×[(Py Fast−Py Slow)/Py Slow]
Loss on drying was carried out on the samples at the start and at the end of compression testing to monitor for moisture absorption during testing. A sample size of 2.0 g±0.2 g was spread onto an aluminium tray and dried until stable at 105° C. using a Mettler HB43-S Halogen moisture balance.

[6] = 0.1M HCl, ambient, Day 0, 1.2 mg/ml nominal, Form 3 = Example 5.4.1
[7] = 0.1M HCl, 4 Hours, Form 3 = Example 5.4.1
[8] = FaSSIF, 4 Hours, atypical HPLC data and variable results
[9] = FaSSIF, 24 Hours, atypical HPLC data and variable results

In the case of `C[S+]([O-])CCCCN=C=S.OCC1OC2OC3C(CO)OC(OC4C(CO)OC(OC5C(CO)OC(OC6C(CO)OC(OC7C(CO)OC(OC1C(O)C2O)C(O)C7O)C(O)C6O)C(O)C5O)C(O)C4O)C(O)C3O` (centres unmarked) [Form 1], the “Mean Conc of parent” value ([1]; 0.1M HCl, 37° C., Day 0) is reported as 1180 µg/mL, the “Mean Conc of parent” value ([1]; 0.1M HCl, 37° C., Day 3) is reported as 1060 µg/mL and the “Mean Conc of parent” value ([1]; 0.1M HCl, 37° C., Day 7) is reported as 1050 µg/mL. For the same compound, the “Mean Conc of parent” value [1, 6] was 1220 µg/mL, the “Mean Conc of parent” value ([1]; 0.1M HCl, ambient, Day 3) was 1090 µg/mL and the “Mean Conc of parent” value ([1]; 0.1M HCl, ambient, Day 7) was 1050 µg/mL. For the same compound, the “Mean Conc of parent” value ([1]; FaSSIF, 37° C., Day 0) was 1180 µg/mL, the “Mean Conc of parent” value ([1]; FaSSIF, 37° C., Day 3) was 920 µg/mL and the “Mean Conc of parent” value ([1]; FaSSIF, 37° C., Day 7) was 940 µg/mL. The “Mean Conc of parent” value ([1]; FaSSIF, ambient, Day 0) was 1160 µg/mL, the “Mean Conc of parent” value ([1]; FaSSIF, ambient, Day 3) was 960 µg/mL and the “Mean Conc of parent” value ([1]; FaSSIF, ambient, Day 7) was 900 µg/mL. For the same compound, the Typical water content [2] was 8-15 % w/w, the “hysteresis (GVS)” value ([3]; 25° C.) was “Significant hysteresis existed between 70% and 30% RH” and the “water content at starting conditions (GVS)” value [3] was “approximately 8 % w/w”. The “additional water taken up (GVS)” value ([3]; 25° C.) was 4-5 % w/w, the “crystalline form by XRPD after GVS” value [3] was “had converted to Form 3” and the “total water content (GVS)” value ([3]; 25° C.) was 12.9 % w/w. The “water taken up (GVS)” value [3] was 8-9 % w/w, the “equilibrium solubility in words” value [4] was “high and comparable” and the “Equilibrium solubility, Mean Conc” value [4, 7] was 632. For the same compound, the “Equilibrium solubility, Mean Conc” value ([4]; 0.1M HCl, 24 Hours) was 2605, the “Equilibrium solubility, Mean Conc” value [4, 8] was 271 and the “Equilibrium solubility, Mean Conc” value [4, 9] was 247. For the same compound, the compaction classification [5] was “soft ductile”, the “sticking on punch or die wall” value [5] was “no evidence of sticking” and the “True Density” value [5] was 1.4586 g/mL. For the same compound, the “Loss on Drying - end” value [5] was 4.25% w/w, the Yield pressure slow [5] was 76 MPa and 76.3 (±1.05) MPa and the Yield pressure fast [5] was 89 MPa and 88.9 (±2.32) MPa. The “Loss on Drying - start” value [5] was 4.07% w/w.
With `C[S+]([O-])CCCCN=C=S.OC[C@H]1O[C@@H]2O[C@H]3[C@H](O)[C@@H](O)[C@@H](O[C@H]4[C@H](O)[C@@H](O)[C@@H](O[C@H]5[C@H](O)[C@@H](O)[C@@H](O[C@H]6[C@H](O)[C@@H](O)[C@@H](O[C@H]7[C@H](O)[C@@H](O)[C@@H](O[C@H]1[C@H](O)[C@H]2O)O[C@@H]7CO)O[C@@H]6CO)O[C@@H]5CO)O[C@@H]4CO)O[C@@H]3CO` [Form 3] the “Mean Conc of parent” value ([1]; 0.1M HCl, 37° C., Day 0) was 1050 µg/mL, the “Mean Conc of parent” value ([1]; 0.1M HCl, 37° C., Day 3) was 940 µg/mL and the “Mean Conc of parent” value ([1]; 0.1M HCl, 37° C., Day 7) was 920 µg/mL. For the same compound, the “Mean Conc of parent” value [1, 6] was 1080 µg/mL, the “Mean Conc of parent” value ([1]; 0.1M HCl, ambient, Day 3) was 940 µg/mL and the “Mean Conc of parent” value ([1]; 0.1M HCl, ambient, Day 7) was 1010 µg/mL. The “Mean Conc of parent” value ([1]; FaSSIF, 37° C., Day 0) was 1010 µg/mL, the “Mean Conc of parent” value ([1]; FaSSIF, 37° C., Day 3) was 800 µg/mL and the “Mean Conc of parent” value ([1]; FaSSIF, 37° C., Day 7) was 780 µg/mL. The “Mean Conc of parent” value ([1]; FaSSIF, ambient, Day 0) was 1000 µg/mL, the “Mean Conc of parent” value ([1]; FaSSIF, ambient, Day 3) was 810 µg/mL and the “Mean Conc of parent” value ([1]; FaSSIF, ambient, Day 7) was 930 µg/mL. The “water content after equilibration at ambient conditions” value ([2]; exposure to ambient conditions (25° C., 40% RH), e.g. 3-7 days) was 5-7 % w/w, the “water content at starting conditions (GVS)” value [3] was 3-4 % w/w and the “additional water taken up (GVS)” value ([3]; 25° C.) was 7-8 % w/w. The “crystalline form by XRPD after GVS” value [3] was “remains as Form 3”, the “total water content (GVS)” value ([3]; 25° C.) was 11.1 % w/w and the “water taken up (GVS)” value [3] was “about 4 % w/w”. For the same compound, the “uptake of moisture in the first sorption cycle (GVS)” value ([3]; between 60 and 70% RH) was “approximately 5 % w/w”, the “equilibrium solubility in words” value [4] was “high and comparable” and the “Equilibrium solubility, Mean Conc” value [4, 7] was 733. The “Equilibrium solubility, Mean Conc” value ([4]; 0.1M HCl, 24 Hours) was 3057, the “Equilibrium solubility, Mean Conc” value [4, 8] was 264 and the “Equilibrium solubility, Mean Conc” value [4, 9] was 221. For the same compound, the compaction classification [5] was “moderately hard brittle/ductile”, the “sticking on punch or die wall” value [5] was “no evidence of sticking” and the “True Density” value [5] was 1.4562 g/mL. The “Loss on Drying - end” value [5] was 1.13% w/w, the Yield pressure slow [5] was 109 MPa and 108.7 (±2.90) MPa and the Yield pressure fast [5] was 140 MPa and 140.4 (±3.65) MPa. The “Loss on Drying - start” value [5] was 1.99% w/w.
